The numbers were not newly measured in patent US12090420B2, “Systems and methods for recovering amines and their derivatives from aqueous mixtures” (INV Nylon Chemicals Americas, LLC, priority 2018, dated 2024), which cites them from elsewhere.

Conditions in one series: not given
As to `CCCCCCN` [Hexylamine], the “highest pKa value” is recorded as 10.5.

Staying with this series, now noted: diamines.
With `NCCCCN` [1,4-butanediamine], the “Higher pKa” value is recorded as 11.2 and the “Lower pKa” value is on record as 9.7.

The series is the same for the next values; noted with them: diamines; 25° C.
For the compound `NCCCCCCN` [1,6-hexanediamine], the “Higher pKa” value is reported as 11.02 and the “Lower pKa” value is 10.24.
`NCCCCCN` [1,5-pentanediamine]: the “Higher pKa” value is on record as 10.93 and the “Lower pKa” value is listed as 10.05.

Staying with this series, now noted: monoamines; single pKa taken as highest pKa.
Broadly, the pKa is the negative logarithm of the acid dissociation constant. For `CCCCCCCCN` [Octylamine], the pKa was 10.65.
In the case of `Cc1ccncc1` [4-Methylpyridine], the pKa is listed as 6.08.
For `CCCCCCCN` [Heptylamine], the pKa is recorded as 10.67.
Take `Cc1cccnc1` [3-Methylpyridine]: the pKa is recorded as 5.52.
On to `c1ccc2c(c1)cnc1ccccc12` [Benzo[c]quinoline], for which the pKa is on record as 5.58.
Consider `CCCCCCN` [Hexylamine], for which the pKa is recorded as 10.56.
Consider `CCCCCN` [Pentylamine], for which the pKa is listed as 10.63.
On to `CC(C)CN` [iso-Butylamine], for which the pKa is on record as 10.43.
On to `CCCCCCCCCN` [Nonylamine], for which the pKa is 10.64.
In the case of `c1ccc2cnccc2c1` [Isoquinoline], the pKa is 5.42.
On to `CCc1ccccn1` [2-Ethylpyridine], for which the pKa was 5.89.
With `CCCCCCCCCCCCCCCCN` [Hexadecylamine], the pKa is listed as 10.63.
